Article PMC11027065 (Analytical chemistry, 2020)

Target: T1, insulin-regulated aminopeptidase (IRAP, EC 3.4.11.3) (Rattus norvegicus, UniProt P97629)
T1 sequence (P97629 1-1025): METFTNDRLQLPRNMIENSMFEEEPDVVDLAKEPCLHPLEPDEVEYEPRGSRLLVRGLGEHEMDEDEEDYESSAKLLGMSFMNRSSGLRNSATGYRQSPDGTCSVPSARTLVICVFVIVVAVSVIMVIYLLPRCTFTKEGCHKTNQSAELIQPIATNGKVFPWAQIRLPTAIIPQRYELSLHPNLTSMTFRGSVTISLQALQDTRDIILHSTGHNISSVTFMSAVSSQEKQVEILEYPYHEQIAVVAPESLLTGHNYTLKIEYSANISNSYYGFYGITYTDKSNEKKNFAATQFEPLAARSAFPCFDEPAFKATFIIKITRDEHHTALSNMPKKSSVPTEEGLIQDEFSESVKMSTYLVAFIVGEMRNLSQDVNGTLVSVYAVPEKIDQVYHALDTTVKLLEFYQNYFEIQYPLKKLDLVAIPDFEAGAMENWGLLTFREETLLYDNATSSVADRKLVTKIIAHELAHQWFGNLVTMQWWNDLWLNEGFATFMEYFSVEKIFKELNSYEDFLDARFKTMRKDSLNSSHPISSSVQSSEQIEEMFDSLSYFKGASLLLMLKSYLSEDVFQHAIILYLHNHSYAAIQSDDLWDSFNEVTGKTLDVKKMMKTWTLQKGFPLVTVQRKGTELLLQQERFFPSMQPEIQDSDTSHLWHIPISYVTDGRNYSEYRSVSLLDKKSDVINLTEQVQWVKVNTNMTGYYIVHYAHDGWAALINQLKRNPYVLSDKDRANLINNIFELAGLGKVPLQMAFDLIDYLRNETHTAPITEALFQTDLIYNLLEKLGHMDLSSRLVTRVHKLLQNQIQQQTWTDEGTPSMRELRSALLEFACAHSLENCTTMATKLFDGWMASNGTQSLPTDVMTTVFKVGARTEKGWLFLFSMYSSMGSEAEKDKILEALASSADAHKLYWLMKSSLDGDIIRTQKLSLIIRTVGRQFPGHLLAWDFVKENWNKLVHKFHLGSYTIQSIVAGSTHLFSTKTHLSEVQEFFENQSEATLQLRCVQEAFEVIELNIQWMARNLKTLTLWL
Test: EOP-MD probe with cLC-MS2: effect of HFI-419 on LE hydrolysis in vivo
Settings: 50 μM HFI-419; GGFL detected without inhibitor; data not shown

CCOC(=O)C1=C(NC(C)=O)Oc2cc(O)ccc2C1c1cccnc1 (stereo not shown) [HFI-419]
product GGFL in dialysate during infusion of inhibitor: undetected
